# Test results: the NIST ThermoML archive (doi:10.1021/je700646e)
# Test: xn = mol fraction of the nth substance listed
# Conditions: Fluid (supercritical or subcritical phases), Taylor dispersion method, x1 = 0
Compound,"binary diffusion coefficient (313.16 K, 15000 kPa) [m2/s]","binary diffusion coefficient (313.16 K, 20000 kPa) [m2/s]","binary diffusion coefficient (313.16 K, 25000 kPa) [m2/s]","binary diffusion coefficient (313.16 K, 30000 kPa) [m2/s]","binary diffusion coefficient (313.16 K, 35000 kPa) [m2/s]","binary diffusion coefficient (323.16 K, 15000 kPa) [m2/s]","binary diffusion coefficient (323.16 K, 20000 kPa) [m2/s]","binary diffusion coefficient (323.16 K, 25000 kPa) [m2/s]","binary diffusion coefficient (323.16 K, 30000 kPa) [m2/s]","binary diffusion coefficient (323.16 K, 35000 kPa) [m2/s]","binary diffusion coefficient (333.16 K, 15000 kPa) [m2/s]","binary diffusion coefficient (333.16 K, 20000 kPa) [m2/s]","binary diffusion coefficient (333.16 K, 25000 kPa) [m2/s]","binary diffusion coefficient (333.16 K, 30000 kPa) [m2/s]","binary diffusion coefficient (333.16 K, 35000 kPa) [m2/s]"
C=CCc1ccc(O)c(OC)c1 [2-hydroxy-5-allylanisole] + O=C=O,9.29e-09,7.69e-09,6.96e-09,6.37e-09,6.1e-09,1.14e-08,9.08e-09,8.03e-09,7.39e-09,6.91e-09,1.21e-08,1.04e-08,9.19e-09,8.32e-09,7.9e-09
CC(=O)CCc1ccccc1 [4-phenyl-2-butanone] + O=C=O,8.97e-09,8.05e-09,7.39e-09,6.95e-09,6.58e-09,1.06e-08,9.25e-09,8.65e-09,7.83e-09,7.5e-09,1.15e-08,1.08e-08,9.59e-09,8.92e-09,8.29e-09
CCOC(=O)c1ccccc1 [ethyl benzoate] + O=C=O,1.05e-08,8.06e-09,7.53e-09,6.82e-09,6.7e-09,1.3e-08,1.01e-08,8.65e-09,7.82e-09,7.25e-09,1.49e-08,1.19e-08,9.82e-09,8.78e-09,8.36e-09
